In patent publication US8680272B2, “3-arylethynyl substituted quinazolinone compounds” (Council of Scientific & Industrial Research, priority 2011, dated 2014):

Experiments:
SF-295 = assay: Anticancer activity, SRB assay, CNS cell line SF-295; assay type: cell-based, human; conditions: CNS SF-295; 48 h continuous drug exposure; —^b means GI50 values not attained at the concentrations used
Experimental: (§1) Some of biological activity studies were carried out at the National Cancer Institute (NCI), Maryland, USA.
(§2) The compounds were evaluated for anticancer activity against sixty human cancer cells derived from nine cancer types (leukemia cell line, non-small-cell lung cell line, colon cell line, CNS cell line, melanoma cell line, ovarian cell line, prostate cell line, renal cell line and breast cancer cell line) as shown in Table 1. For each compound, dose response curves for each cell line were measured at a minimum of five concentrations at 10 fold dilutions. A protocol of 48 h continuous drug exposure was used and a sulforhodamine B (SRB) protein assay was used to estimate cell viability or growth.

SK-OV-3 = assay: Anticancer activity, SRB assay, ovarian cell line SK-OV-3; assay type: cell-based, human; conditions: Ovarian SK-OV-3; 48 h continuous drug exposure; —^b means GI50 values not attained at the concentrations used
Experimental: as §1, §2

SK-MEL-28 = assay: Anticancer activity, SRB assay, melanoma cell line SK-MEL-28; assay type: cell-based, human; conditions: Melanoma SK-MEL-28; 48 h continuous drug exposure; —^b means GI50 values not attained at the concentrations used
Experimental: as §1, §2

UO-31 = assay: Anticancer activity, SRB assay, renal cell line UO-31; assay type: cell-based, human; conditions: Renal UO-31; 48 h continuous drug exposure; —^b means GI50 values not attained at the concentrations used
Experimental: as §1, §2

A549/ATCC = assay: Anticancer activity, SRB assay, non-small lung cell line A549/ATCC; assay type: cell-based, human; conditions: 48 h continuous drug exposure, —^b means GI50 values not attained at the concentrations used
Experimental: as §1, §2

[1] = system: six CNS cancer cell line (SF-268, SF-295, SF-539, SNB-19, SNB-75 and U251); assay: Anticancer activity, SRB assay, CNS panel; assay type: cell-based, human
Experimental: as §1, §2

CCRF-CEM = assay: Anticancer activity, SRB assay, leukemia cell line CCRF-CEM; assay type: cell-based, human; conditions: 48 h continuous drug exposure, —^b means GI50 values not attained at the concentrations used
Experimental: as §1, §2

UACC-62 = assay: Anticancer activity, SRB assay, melanoma cell line UACC-62; assay type: cell-based; conditions: Homo sapiens; Melanoma UACC-62; 48 h continuous drug exposure; read-out: Growth Inhibition GI50
Experimental: as §1, §2

NCI/ADR-RES = assay: Anticancer activity, SRB assay, ovarian cell line NCI/ADR-RES; assay type: cell-based, human; conditions: Ovarian NCl/ADR-RES; 48 h continuous drug exposure; —^b means GI50 values not attained at the concentrations used
Experimental: as §1, §2

[2] = system: eight renal cancer cell line (786-0, A498, ACHN, CAKI-1, SN12C, TK-10, UO-31 and RXF 393); assay: Anticancer activity, SRB assay, renal panel; assay type: cell-based, human; parameters: mean graph midpoint values (MG_MID) of Log10LC50 / mean graph midpoint values (MG_MID) of log10 TGI (Log10TGI50): unit not given here
Experimental: as §1, §2

TK-10 = assay: Anticancer activity, SRB assay, renal cell line TK-10; assay type: cell-based, human; conditions: Renal TK-10; 48 h continuous drug exposure; —^b means GI50 values not attained at the concentrations used
Experimental: as §1, §2

HT29 = assay: Anticancer activity, SRB assay, colon cell line HT29; assay type: cell-based; conditions: Homo sapiens, HT-29, 48 h continuous drug exposure, read-out: Growth Inhibition GI50
Experimental: as §1, §2

LOX IMVI = assay: Anticancer activity, SRB assay, melanoma cell line LOX IMVI; assay type: cell-based; conditions: Homo sapiens, 48 h continuous drug exposure, read-out: Growth Inhibition GI50
Experimental: as §1, §2

NCI-H23 = assay: Anticancer activity, SRB assay, non-small lung cell line NCI-H23; assay type: cell-based; conditions: Homo sapiens, Non-small lung NCl-H23, 48 h continuous drug exposure, read-out: Growth Inhibition GI50
Experimental: as §1, §2

SN12C = assay: Anticancer activity, SRB assay, renal cell line SN12C; assay type: cell-based, human; conditions: 48 h continuous drug exposure, —^b means GI50 values not attained at the concentrations used
Experimental: as §1, §2

MCF7 = assay: Anticancer activity, SRB assay, breast cell line MCF7; assay type: cell-based; conditions: Homo sapiens, 48 h continuous drug exposure, read-out: Growth Inhibition GI50
Experimental: as §1, §2

[3] = system: six breast cancer cell line (MCF-7, MDA-MB-231/ATCC, HS 578T, TD-47D, MDA-MB-468 and BT-549); assay: Anticancer activity, SRB assay, breast panel; assay type: cell-based, human
Experimental: as §1, §2

IGROV1 = assay: Anticancer activity, SRB assay, ovarian cell line IGROV1; assay type: cell-based, human; conditions: 48 h continuous drug exposure, —^b means GI50 values not attained at the concentrations used
Experimental: as §1, §2

[4] = system: seven colon cancer cell line (COLO 205, HCC-2998, HCT-116, HCT-15, HT29, KM12 and SW-620); assay: Anticancer activity, SRB assay, colon panel; assay type: cell-based, human
Experimental: as §1, §2

SF-539 = assay: Anticancer activity, SRB assay, CNS cell line SF-539; assay type: cell-based, human; conditions: CNS SF-539; 48 h continuous drug exposure; —^b means GI50 values not attained at the concentrations used
Experimental: as §1, §2

HOP-92 = assay: Anticancer activity, SRB assay, non-small lung cell line HOP-92; assay type: cell-based, human; conditions: Non-small lung HOP-92; 48 h continuous drug exposure; —^b means GI50 values not attained at the concentrations used
Experimental: as §1, §2

SF-268 = assay: Anticancer activity, SRB assay, CNS cell line SF-268; assay type: cell-based, human; conditions: CNS SF-268; 48 h continuous drug exposure; —^b means GI50 values not attained at the concentrations used
Experimental: as §1, §2

HOP-62 = assay: Anticancer activity, SRB assay, non-small lung cell line HOP-62; assay type: cell-based, human; conditions: Non-small lung HOP-62; 48 h continuous drug exposure; —^b means GI50 values not attained at the concentrations used
Experimental: as §1, §2

MDA-MB-435 = assay: Anticancer activity, SRB assay, melanoma cell line MDA-MB-435; assay type: cell-based, human; conditions: Melanoma MDA-MB-435; 48 h continuous drug exposure; —^b means GI50 values not attained at the concentrations used
Experimental: as §1, §2

[5] = system: sixty human cancer cell lines derived from nine cancer types; assay: Anticancer activity against sixty human cancer cell lines; assay type: cell-based
Experimental: as §1, §2

SR = assay: Anticancer activity, SRB assay, leukemia cell line SR; assay type: cell-based; conditions: Homo sapiens, 48 h continuous drug exposure, read-out: Growth Inhibition GI50
Experimental: as §1, §2

MDA-MB-468 = assay: Anticancer activity, SRB assay, breast cell line MDA-MB-468; assay type: cell-based; conditions: Homo sapiens; Breast MDA-MB-468; 48 h continuous drug exposure; read-out: Growth Inhibition GI50
Experimental: as §1, §2

`COc1ccc2cc(C#Cc3ccc(-n4c(/C=C/c5cc(OC)c(OC)c(OC)c5)nc5ccccc5c4=O)c(C)c3)ccc2c1` [Compound 6l, (E)-3-(4-((6-Methoxynaphthalen-2-yl)ethynyl)-2-methylphenyl)-2-(3,4,5-trimethoxystyryl)quinazolin-4(3H)-one] was tested, and the “Growth Inhibition GI50” value (SF-295) was “—^b”, the “Growth Inhibition GI50” value (SK-OV-3) was “—^b” and the “Growth Inhibition GI50” value (SK-MEL-28) was “—^b”. For the same compound, the “Growth Inhibition GI50” value (UO-31) was “—^b”, the “Growth Inhibition GI50” value (A549/ATCC) was “—^b” and the “mean graph midpoint values (MG_MID) of log10 TGI (Log10TGI50)” value (“mean graph midpoint values … (Log10TGI50)” below) ([1]; CNS, log value of concentration of the compound resulting in total inhibition of net cell growth) was >−4.00. For the same compound, the “mean graph midpoint values (MG_MID) of Log10LC50” value ([1]; CNS, log value of the concentration of compounds leading to 50% net cell death) was >−4.00, the “mean graph midpoint values (MG_MID) of Log10GI50” value ([1]; CNS, log values of concentration in mol/L causing 50% inhibition of net cell growth) was −4.18 mol/L and the GI50 ([1]; Homo sapiens, six CNS cancer cell line, exposure period of at least 48 h, read-out: GI50 (range over the panel)) was 7.4 µM. For the same compound, the “Growth Inhibition GI50” value (CCRF-CEM) was “—^b”, the GI50 (UACC-62) was 2.19 µM and the “Growth Inhibition GI50” value (NCI/ADR-RES) was “—^b”. For the same compound, the GI50 ([2]; Homo sapiens, eight renal cancer cell line, exposure period of at least 48 h, read-out: in vitro anticancer activity (range over the panel)) was 4.91 µM, the “mean graph midpoint values … (Log10TGI50)” value ([2]; Renal, log value of concentration of the compound resulting in total inhibition of net cell growth) was >−4.00 and the “mean graph midpoint values (MG_MID) of Log10LC50” value ([2]; Renal, log value of the concentration of compounds leading to 50% net cell death) was >−4.00. The “mean graph midpoint values (MG_MID) of Log10GI50” value ([2]; Renal, log values of concentration in mol/L causing 50% inhibition of net cell growth) was −4.16 mol/L, the “Growth Inhibition GI50” value (TK-10) was “—^b” and the GI50 (HT29) was 3.41 µM. For the same compound, the GI50 (LOX IMVI) was 5.96 µM, the GI50 (NCI-H23) was 40.5 µM and the “Growth Inhibition GI50” value (SN12C) was “—^b”. The GI50 (MCF7) was 63.8 µM, the “mean graph midpoint values … (Log10TGI50)” value ([3]; Breast, log value of concentration of the compound resulting in total inhibition of net cell growth) was >−4.00 and the “mean graph midpoint values (MG_MID) of Log10LC50” value ([3]; Breast, log value of the concentration of compounds leading to 50% net cell death) was >−4.00. The “mean graph midpoint values (MG_MID) of Log10GI50” value ([3]; Breast, log values of concentration in mol/L causing 50% inhibition of net cell growth) was −4.51 mol/L, the GI50 ([3]; Homo sapiens, six breast cancer cell line, exposure period of at least 48 h, read-out: GI50 (range over the panel)) was 3.8 to 63.8 µM and the “Growth Inhibition GI50” value (IGROV1) was “—^b”. For the same compound, the “mean graph midpoint values … (Log10TGI50)” value ([4]; Colon, log value of concentration of the compound resulting in total inhibition of net cell growth) was >−4.00, the “mean graph midpoint values (MG_MID) of Log10LC50” value ([4]; Colon, log value of the concentration of compounds leading to 50% net cell death) was >−4.00 and the “mean graph midpoint values (MG_MID) of Log10GI50” value ([4]; Colon, log values of concentration in mol/L causing 50% inhibition of net cell growth) was −5.16 mol/L. The GI50 ([4]; Homo sapiens, seven colon cancer cell line, exposure period of at least 48 h, read-out: GI50 (range over the panel)) was 1.22 to 17.2 µM, the “Growth Inhibition GI50” value (SF-539) was “—^b” and the “Growth Inhibition GI50” value (HOP-92) was “—^b”. The “Growth Inhibition GI50” value (SF-268) was “—^b”, the “Growth Inhibition GI50” value (HOP-62) was “—^b” and the “Growth Inhibition GI50” value (MDA-MB-435) was “—^b”. The “in vitro anticancer activity (in words)” value [5] was “exhibiting an in vitro anticancer activity”, the GI50 (SR) was 0.395 µM and the GI50 (MDA-MB-468) was 3.8 µM.
